According to ChEMBL document CHEMBL1146212, “Glyceraldehyde 3-phosphate dehydrogenase is a cellular target of the insulin mimic demethylasterriquinone B1” (J Med Chem, 2007):

Legend:
[1] = molecular target: Glyceraldehyde-3-phosphate dehydrogenase (Homo sapiens, UniProt P04406); assay: Binding affinity to GAPDH in human erythrocytes; format: cell-based
[2] = molecular target: Glyceraldehyde-3-phosphate dehydrogenase (Oryctolagus cuniculus, UniProt P46406); assay: Binding affinity to GAPDH in rabbit muscle
Sequence of Glyceraldehyde-3-phosphate dehydrogenase (Oryctolagus cuniculus, UniProt P46406) (P46406 whole entry): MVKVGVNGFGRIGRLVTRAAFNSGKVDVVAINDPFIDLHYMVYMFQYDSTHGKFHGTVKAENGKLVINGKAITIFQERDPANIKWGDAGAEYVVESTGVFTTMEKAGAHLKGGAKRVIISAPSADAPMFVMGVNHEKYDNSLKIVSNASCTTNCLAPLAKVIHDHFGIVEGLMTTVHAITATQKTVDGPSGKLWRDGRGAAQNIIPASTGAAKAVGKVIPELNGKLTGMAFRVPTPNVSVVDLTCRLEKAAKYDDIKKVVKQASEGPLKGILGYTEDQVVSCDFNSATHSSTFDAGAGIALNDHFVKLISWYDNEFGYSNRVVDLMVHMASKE

Sequence of Glyceraldehyde-3-phosphate dehydrogenase (Homo sapiens, UniProt P04406) (P04406 whole entry): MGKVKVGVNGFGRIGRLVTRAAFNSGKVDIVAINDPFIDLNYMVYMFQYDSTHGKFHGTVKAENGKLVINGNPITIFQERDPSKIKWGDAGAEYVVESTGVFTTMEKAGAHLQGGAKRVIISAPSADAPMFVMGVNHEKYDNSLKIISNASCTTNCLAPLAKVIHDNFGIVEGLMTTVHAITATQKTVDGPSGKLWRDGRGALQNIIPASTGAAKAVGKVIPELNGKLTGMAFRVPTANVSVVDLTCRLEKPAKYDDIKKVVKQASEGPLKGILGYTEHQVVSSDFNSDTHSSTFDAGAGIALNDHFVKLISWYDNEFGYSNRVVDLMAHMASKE

Compound | Kd [1] [µM] | IC50 [2] [µM]
C=CC(C)(C)c1[nH]c2ccccc2c1C1=C(O)C(O)=C(c2c[nH]c3c(CC=C(C)C)cccc23)C(=O)C1=O | 7.2 | 15
CC(C)=CCc1cccc2c(C3=C(O)C(=O)C(c4c(C)[nH]c5ccc(NC(=O)CCCCCNC(=O)CCCCC6SCC7NC(=O)NC76)cc45)=C(O)C3=O)c[nH]c12 (stereo not drawn) | 7.5 | –
